Reference: patent US11028072B2, “2,4-diamino-6-ethylpyrimidine derivatives with antimalarial activities against Plasmodium falciparum” (National Science and Technology Development Agency, priority 2015, dated 2021)
Structures can show the parent of a compound that is named as a salt.

How the values were obtained:
in vitro = conditions: African green monkey
From the text: (§1) In Vitro Antimalarial Activites Against P. falciparum and Cytotoxicity Towards Mammalian Cells (Vero Cells)

[1] = tested on: P. falciparum V1/S (N51I + C59R + S108 + I164L); test: microbe, parasite or virus in culture; format: cell-based, Plasmodium falciparum; conditions: Plasmodium falciparum; in vitro, quadruple mutant strain V1/S; read-out: IC50 P. falciparum V1/S
From the text: as §1

[2] = tested on: P. falciparum TM4/8.2 (wild type); test: microbe, parasite or virus in culture; format: cell-based, Plasmodium falciparum; conditions: Plasmodium falciparum; in vitro, wild-type strain TM4/8.2; read-out: IC50 P. falciparum TM4/8.2 (WT)
From the text: as §1

| SMILES | melting point [°C] | also measured |
| --- | --- | --- |
| CCc1nc(N)nc(N)c1OCc1coc(-c2cccc(OCC(=O)OCc3ccccc3)c2)n1 (as salt: hydrochloride) (hydrate or solvate) [Compound 53] | 163.5 to 164.5 |  |
| CCc1nc(N)nc(N)c1OCc1coc(-c2cccc(OCC(=O)O)c2)n1 (as salt: hydrochloride) (hydrate or solvate) [Compound 54] | 203 to 204 |  |
| CCc1nc(N)nc(N)c1OCc1coc(-c2ccc(OCC(=O)OCc3ccccc3)cc2)n1 (as salt: hydrochloride) (hydrate or solvate) [Compound 56] | 191.5 to 192.5 |  |
| CCc1nc(N)nc(N)c1OCc1coc(-c2ccc(OCC(=O)O)cc2)n1 (as salt: hydrochloride) (hydrate or solvate) [Compound 57] | 195.5 to 197.5 |  |
| CCc1nc(N)nc(N)c1OCc1csc(-c2cccc(OCC(=O)OCc3ccccc3)c2)n1 (as salt: hydrochloride) (hydrate or solvate) [Compound 63] | 175 to 177 |  |
| CCc1nc(N)nc(N)c1OCc1csc(-c2cccc(OCC(=O)O)c2)n1 (as salt: hydrochloride) (hydrate or solvate) [Compound 64] | 191 to 193 |  |
| CCc1nc(N)nc(N)c1OCc1csc(-c2ccc(OCC(=O)OCc3ccccc3)cc2)n1 (as salt: hydrochloride) (hydrate or solvate) [Compound 72] | 178 to 180 |  |
| CCc1nc(N)nc(N)c1OCc1csc(-c2ccc(OCC(=O)O)cc2)n1 (as salt: hydrochloride) (hydrate or solvate) [Compound 73] | 203.5 to 205.5 |  |
| CCc1nc(N)nc(N)c1-c1cn(-c2ccccc2)nn1 (as salt: hydrochloride) [Compound 1] | 273.2 to 274.5 |  |
| CCc1nc(N)nc(N)c1-c1cn(Cc2ccccc2)nn1 (as salt: hydrochloride) [Compound 3] | 255.5 to 256.5 |  |
| CCc1nc(N)nc(N)c1-c1cn(Cc2ccc(C(=O)OC)cc2)nn1 (as salt: hydrochloride) [Compound 4] | 222 to 223 |  |
| CCc1nc(N)nc(N)c1-c1cn(Cc2ccc(C(=O)O)cc2)nn1 (as salt: hydrochloride) [Compound 5] | 270 to 272 |  |
| CCc1nc(N)nc(N)c1-c1cn(Cc2ccc(OC(=O)N(c3ccccc3)c3ccccc3)cc2)nn1 (as salt: hydrochloride) [Compound 6] | 138 to 139 |  |
| CCc1nc(N)nc(N)c1-c1cn(CCc2ccccc2)nn1 (as salt: hydrochloride) [Compound 7] | 203 to 204.5 |  |
| CCc1nc(N)nc(N)c1-c1cn(CCCc2ccccc2)nn1 (as salt: hydrochloride) [Compound 8] | 233 to 235 |  |
| CCc1nc(N)nc(N)c1-c1cn(CCOc2ccc(Cl)cc2)nn1 (as salt: hydrochloride) [Compound 9] | 173.5 to 175 |  |
| CCc1nc(N)nc(N)c1-c1cn(CCOc2ccc(C(=O)OC)cc2)nn1 (as salt: hydrochloride) [Compound 10] | 225 to 226 |  |
| CCc1nc(N)nc(N)c1-c1cn(CCCOc2ccc(Cl)cc2)nn1 (as salt: hydrochloride) [Compound 11] | 222.5 to 223.5 |  |
| CCc1nc(N)nc(N)c1-c1cn(CCCOc2ccc(C(=O)OC)cc2)nn1 (as salt: hydrochloride) [Compound 12] | 211 to 212 |  |
| CCc1nc(N)nc(N)c1OCc1cn(-c2ccccc2)nn1 (as salt: hydrochloride) [Compound 13] | 212.5 to 213.5 |  |
| CCc1nc(N)nc(N)c1OCc1cn(-c2cccc([N+](=O)[O-])c2)nn1 (as salt: hydrochloride) [Compound 14] | 236 to 237 |  |
| CCc1nc(N)nc(N)c1OCc1cn(-c2cccc(C(=O)OC)c2)nn1 (as salt: hydrochloride) [Compound 15] | 211 to 212 |  |
| CCc1nc(N)nc(N)c1-c1ccc(Cl)cc1 [Pyrimethamine, pyrimethamine, reference compound] |  | IC50 (in vitro): > 10 µM; IC50 [1]: > 100 µM; IC50 [2]: 0.058 ± 0.03 µM |
